{"source": "patent US4550186A", "about": "“Binuclear copper (II) carboxylates formed from amine-carboxyboranes” (Duke University, priority 1983, dated 1985)", "key": {"Fatty Acid Synthetase": {"biological_target": "T1, Fatty Acid Synthetase (Mus musculus, UniProt P19096)", "T1 construct": "10% homogenates of CF1 male mouse liver; from tissue; host or cells: CF1 male mouse liver, 10% homogenate", "T1 sequence (P19096 whole entry)": "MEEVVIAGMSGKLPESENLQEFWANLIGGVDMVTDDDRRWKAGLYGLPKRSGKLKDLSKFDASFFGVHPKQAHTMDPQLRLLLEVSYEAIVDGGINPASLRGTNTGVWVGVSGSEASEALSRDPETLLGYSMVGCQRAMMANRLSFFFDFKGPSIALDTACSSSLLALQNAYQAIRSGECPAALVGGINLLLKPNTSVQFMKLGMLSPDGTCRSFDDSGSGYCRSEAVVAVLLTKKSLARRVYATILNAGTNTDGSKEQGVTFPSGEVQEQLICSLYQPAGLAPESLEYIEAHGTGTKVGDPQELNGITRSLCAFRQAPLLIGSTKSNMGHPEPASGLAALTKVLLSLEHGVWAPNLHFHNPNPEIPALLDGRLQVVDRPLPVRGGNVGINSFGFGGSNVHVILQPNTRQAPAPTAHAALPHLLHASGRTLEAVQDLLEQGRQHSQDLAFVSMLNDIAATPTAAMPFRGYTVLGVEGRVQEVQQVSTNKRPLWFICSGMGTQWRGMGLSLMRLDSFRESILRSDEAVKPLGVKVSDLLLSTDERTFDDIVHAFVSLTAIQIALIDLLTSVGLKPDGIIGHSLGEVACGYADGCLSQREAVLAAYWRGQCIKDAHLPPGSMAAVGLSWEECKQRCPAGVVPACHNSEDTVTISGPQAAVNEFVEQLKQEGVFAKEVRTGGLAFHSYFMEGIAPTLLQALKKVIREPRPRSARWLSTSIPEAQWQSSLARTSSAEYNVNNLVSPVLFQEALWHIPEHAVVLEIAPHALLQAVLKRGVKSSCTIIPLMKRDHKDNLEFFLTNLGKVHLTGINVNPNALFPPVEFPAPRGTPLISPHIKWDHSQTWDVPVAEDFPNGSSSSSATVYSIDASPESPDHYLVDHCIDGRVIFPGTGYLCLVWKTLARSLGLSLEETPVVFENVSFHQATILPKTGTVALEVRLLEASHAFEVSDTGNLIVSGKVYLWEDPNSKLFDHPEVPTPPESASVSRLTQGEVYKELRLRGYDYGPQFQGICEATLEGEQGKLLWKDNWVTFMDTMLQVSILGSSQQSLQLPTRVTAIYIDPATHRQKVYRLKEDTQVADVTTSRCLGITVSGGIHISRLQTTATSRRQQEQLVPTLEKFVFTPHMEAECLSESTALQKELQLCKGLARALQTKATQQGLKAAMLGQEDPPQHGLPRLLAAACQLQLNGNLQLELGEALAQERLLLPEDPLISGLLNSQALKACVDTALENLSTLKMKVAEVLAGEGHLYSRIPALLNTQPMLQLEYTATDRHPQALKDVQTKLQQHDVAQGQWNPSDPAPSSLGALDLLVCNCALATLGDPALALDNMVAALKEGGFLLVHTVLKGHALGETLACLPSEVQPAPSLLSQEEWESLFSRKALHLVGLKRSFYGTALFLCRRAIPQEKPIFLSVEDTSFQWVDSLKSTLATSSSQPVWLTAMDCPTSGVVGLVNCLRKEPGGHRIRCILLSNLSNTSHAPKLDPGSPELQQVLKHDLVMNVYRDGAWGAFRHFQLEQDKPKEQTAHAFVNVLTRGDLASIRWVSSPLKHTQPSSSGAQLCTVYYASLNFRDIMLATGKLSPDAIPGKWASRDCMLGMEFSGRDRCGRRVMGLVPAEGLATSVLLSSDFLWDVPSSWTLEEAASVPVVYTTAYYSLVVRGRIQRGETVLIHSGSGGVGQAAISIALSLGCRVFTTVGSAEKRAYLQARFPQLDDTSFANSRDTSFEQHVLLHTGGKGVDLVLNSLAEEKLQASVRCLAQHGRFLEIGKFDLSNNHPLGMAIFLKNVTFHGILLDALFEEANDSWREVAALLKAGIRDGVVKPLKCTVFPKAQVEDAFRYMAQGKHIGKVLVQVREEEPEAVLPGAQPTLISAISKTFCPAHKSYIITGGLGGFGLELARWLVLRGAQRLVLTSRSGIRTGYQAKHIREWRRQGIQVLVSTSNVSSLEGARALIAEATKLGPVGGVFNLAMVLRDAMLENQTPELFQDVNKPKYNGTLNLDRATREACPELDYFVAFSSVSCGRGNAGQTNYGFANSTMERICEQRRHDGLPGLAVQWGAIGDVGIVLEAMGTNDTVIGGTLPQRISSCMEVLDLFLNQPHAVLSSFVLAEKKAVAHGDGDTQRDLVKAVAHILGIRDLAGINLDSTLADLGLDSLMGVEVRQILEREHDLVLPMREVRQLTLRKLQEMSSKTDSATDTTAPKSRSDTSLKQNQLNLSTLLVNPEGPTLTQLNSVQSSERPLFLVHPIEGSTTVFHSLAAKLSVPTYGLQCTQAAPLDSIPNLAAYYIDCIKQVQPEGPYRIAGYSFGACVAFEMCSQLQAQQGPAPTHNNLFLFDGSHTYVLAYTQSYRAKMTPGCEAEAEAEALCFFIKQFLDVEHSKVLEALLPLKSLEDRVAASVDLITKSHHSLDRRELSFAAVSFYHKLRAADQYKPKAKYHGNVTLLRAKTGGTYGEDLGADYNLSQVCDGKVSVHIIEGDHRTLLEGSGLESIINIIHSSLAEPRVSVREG", "assay": "In vitro liver enzyme study: fatty acid synthetase", "format": "biochemical", "details": "in vitro CF1 liver", "experimental": "(§1) In vitro enzymatic studies were determined using 10% homogenates of CF1 male mouse liver with 50-200 μM of test drugs. In vivo enzymatic studies were determined using 10% homogenates of liver from CF1 male mice obtained after administering the agents for 16 days at a dose ranging from 2.5-20 mg/kg/day intraperitoneally. The liver homogenates for both in vitro and in vivo studies were prepared in 0.25M sucrose and 0.001M (ethylenedinitrilo)tetraacetic acid. Acetyl coenzyme A synthetase and adenosine triphosphate dependent citrate lyase activities were determined spectrophotometrically at 540 nm as the hydroxylamate of acetyl coenzyme A formed after 30 min at 37° C. Mitochondrial citrate exchange was determined by the procedure of Robinson et al [Eur. J. Biochem., 216, 63 (1970)] using ^14 C-sodium bicarbonate (41 mCi/mmol) incorporated into mitochondrial ^14 C-citrate after isolating rat mitochondria (9000 g×10 min) from the homogenates. The exchanges of the ^14 C-citrate were determined after incubating the mitochondrial fraction which was loaded with labeled citrate and test drugs for 10 min. Then the radioactivity was measured in the mitochondrial and supernantant fractions in scintillation fluid and expressed as a percentage. Cholesterol side chain oxidation was determined by the method of Kritchevsky and Tepper [Artherosclerosis, 18, 93 (1973)] using (26-^14 C) cholesterol (50 mCi/mmol) and mitochondria isolated from rat liver homogenates. […] Fatty acid synthetase activity was determined by the method of Brady et al [J. Biol. Chem., 235, 3093 (1960)] using [2-^14 C] malonyl-coenzyme A (37.5 mCi/mmol) which was incorporated into newly synthesized fatty acids that were extracted with ether and counted. Acyl transferase activity was determined with glycerol-3phosphate [L-2-^3 H(N)] […] HCl and counted. Phosphatidate phosphohydrolase activity was measured as the inorganic phosphate released after 30 min from phosphatidic acid by the method of Mavis et al [J. Lipid Res., 19, 467 (1978)]. […]"}, "Acetyl CoA Carboxylase": {"biological_target": "T2, Acetyl CoA Carboxylase (Mus musculus, UniProt Q5SWU9)", "T2 construct": "10% homogenates of CF1 male mouse liver; from tissue; host or cells: CF1 male mouse liver, 10% homogenate", "assay": "In vivo liver enzyme study: acetyl CoA carboxylase", "details": "CF1 liver after 16 days i.p.", "experimental": "as §1"}}, "data": [{"substance": "{Cu[(CH3)3 N.BH2 CO2 ]2.(CH3)3 N.BH2 COOH} [Compound I]", "values": [{"measurement": "Fatty Acid Synthetase", "setting": "Fatty Acid Synthetase; 50 μM", "result": "86 ± 7", "unit": "Percent Control"}, {"measurement": "Fatty Acid Synthetase", "setting": "Fatty Acid Synthetase; 100 μM", "result": "96 ± 8", "unit": "Percent Control"}, {"measurement": "Fatty Acid Synthetase", "setting": "Fatty Acid Synthetase; 200 μM", "result": "87 ± 7", "unit": "Percent Control"}, {"measurement": "Acetyl CoA Carboxylase", "setting": "Acetyl CoA Carboxylase; 2.5 mg/kg", "result": "103 ± 6% of control"}, {"measurement": "Acetyl CoA Carboxylase", "setting": "Acetyl CoA Carboxylase; 5.0 mg/kg", "result": "95% of control"}, {"measurement": "Acetyl CoA Carboxylase", "setting": "Acetyl CoA Carboxylase; 10 mg/kg", "result": "120 ± 7% of control"}]}]}
